In patent US10702506B2, “Small molecule inhibitors of pendrin ion exchange and pharmaceutical compositions” (THE REGENTS OF THE UNIVERSITY OF CALIFORNIA, priority 2016, dated 2020):
pIC50: −log10 of the molar value.

Tests used:
pendrin = biological target: T1, pendrin (Homo sapiens, UniProt O43511); experiment: BCECF cytoplasmic pH assay of pendrin-mediated Cl−/HCO3− exchange in pendrin-expressing FRT cells; format: cell-based; design: expressed in transfected cells
T1 sequence (O43511 1-780): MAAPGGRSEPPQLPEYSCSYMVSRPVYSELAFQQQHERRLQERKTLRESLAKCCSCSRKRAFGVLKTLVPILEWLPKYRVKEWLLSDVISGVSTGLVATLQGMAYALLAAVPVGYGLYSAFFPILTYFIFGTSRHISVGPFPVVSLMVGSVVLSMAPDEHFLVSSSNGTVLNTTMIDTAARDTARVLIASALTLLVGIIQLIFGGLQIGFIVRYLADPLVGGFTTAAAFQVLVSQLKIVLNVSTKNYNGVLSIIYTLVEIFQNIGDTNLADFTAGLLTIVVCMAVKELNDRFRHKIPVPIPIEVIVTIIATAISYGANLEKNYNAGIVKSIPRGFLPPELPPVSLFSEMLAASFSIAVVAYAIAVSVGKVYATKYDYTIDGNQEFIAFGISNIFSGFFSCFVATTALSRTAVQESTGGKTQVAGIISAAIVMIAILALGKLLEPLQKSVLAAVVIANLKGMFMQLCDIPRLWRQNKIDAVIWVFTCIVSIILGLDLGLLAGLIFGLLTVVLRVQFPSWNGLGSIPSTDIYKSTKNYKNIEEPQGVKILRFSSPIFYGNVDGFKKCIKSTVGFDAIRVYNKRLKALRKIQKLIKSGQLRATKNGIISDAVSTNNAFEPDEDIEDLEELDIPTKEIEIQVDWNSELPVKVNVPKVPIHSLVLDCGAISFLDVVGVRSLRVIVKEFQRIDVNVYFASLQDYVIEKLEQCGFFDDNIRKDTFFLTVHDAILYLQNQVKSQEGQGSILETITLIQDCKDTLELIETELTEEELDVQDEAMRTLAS
Protocol: Cytoplasmic pH (pHi) was measured to assay pendrin-mediated Cl^−/HCO3^− exchange in pendrin-expressing FRT cells and primary cell cultures using the pH-sensitive fluorescent probe BCECF. Cells were loaded for 20 min using 10 μM BCECF-AM (Invitrogen, Carlsbad, Calif.) in HCO3^−-containing buffer (in mM: 120 NaCl, 5 KCl, 1 CaCl2), 1 MgSO4, 10 glucose, 5 Hepes, 25 NaHCO3; pH 7.4) at 27° C. in a tissue culture incubator. Cells were washed and transferred to the stage of a TE2000 microscope (Nikon, Melville, N.Y.) equipped with a C9100 EM-CCD (Hamamatsu, San Jose, Calif.), XCite light source (Excelitas, Waltham, Mass.), Nikon 20×N.A. 0.75 S Fluor objective, Uniblitz shutter (Vincent Associates, Rochester, N.Y.), and filters for BCECF fluorescence (Chroma, Bellows Fall, Vt.), where they were purged with 95% O2/5% CO2. […] BCECF pH-sensitive fluorescence (490 nm excitation, 535 nm emission) was acquired at 0.5 Hz, with control experiments confirming that BCECF pH-insensitive fluorescence was not altered during exchange protocols. In some experiments pHi changes in the absence of HCO3^− were measured using buffers in which NaCl or Na gluconate replaced NaHCO3^−. To relate BCECF fluorescence to pH, a calibration curve over the quasi-linear range of BCECF sensitivity (pH 6.6-7.7) was generated as described. […]

[1] = system: HBE and CFBE cell cultures; experiment: ASL pH by BCECF-dextran ratio imaging in HBE and CFBE cultures; format: cell-based, human; settings: 25 μM, 4 hours
Protocol: To investigate the possible involvement of pendrin in ASL pH regulation, fluorescence ratio imaging was done of the ASL in HBE and CFBE cultures after staining with BCECF-dextran. In the absence of IL-13-treatment, ASL pH was ˜0.3 pH units more acidic in CFBE than HBE cultures (FIG. 5C; pH ˜7.4 vs. ˜7.1), in agreement with prior studies showing relative ASL acidity in CF.
ASL pH was measured using the pH-sensitive fluorophore BCECF conjugated to 10 kDa dextran (Invitrogen, Carlsbad, Calif.) as described, which was added 4-6 h prior to measurement (20 μl of 0.5 mg/ml in PBS). Cell inserts were incubated in HCO3^−-containing buffer (5% CO2 environment) and the ASL was imaged using a SMZ stereoscopic microscope (Nikon, Melville, N.Y.) equipped with a C9100 EM-CCD, Exfo XCite light source and BCECF filters (440/10X, 490/20X, 535/25M, Chroma, Bellows Falls, Vt.). In some experiments ASL pH was measured after PDSinh-A01 treatment, as described for ASL depth measurements. To relate BCECF fluorescence to pH, a calibration curve over the quasi-linear range of BCECF sensitivity was generated.

inhibition of cytoplasmic alkalinization (Cl−/HCO3− exchange) (pendrin; 25 μM): strongly inhibited
pIC50 (pendrin; Cl−/HCO3− exchange, read-out: concentration giving fifty percent inhibition of Cl−/HCO3− exchange): ~5.60
Compound: Cn1nc(COc2cccc(F)c2)c2c1CCN(C(=O)Nc1ccc(Cl)cc1)C2 [PDSinh-A01]
effect on ASL pH, IL-13-treated cultures ([1]; IL-13-treated): did not alter ASL pH
effect on ASL pH, basal conditions ([1]; no IL-13): did not alter ASL pH
